Data published in paper PMC11397024, “Strategic Fluorination to Achieve a Potent, Selective, Metabolically Stable, and Orally Bioavailable Inhibitor of CSNK2” (Molecules, 2024).
Like-named read-outs stand apart in the source and are kept apart here.

Test: 24 h PK study in mice
Format: in vivo, CD-1 mice
Details: for concentration at 24 h: mouse, CD-1 mice, below limit of quantification, read-out: plasma concentration at the 24 h time point
Experimental: In the 24 h PK study, male CD-1 mice (6–8 weeks old, 20–30 g) were dosed by intravenous (i.v.), oral (p.o.), or intraperitoneal (i.p.) administration of compound 2. For i.v. administration, a single dose of compound 2 (3 mg/kg) was administered as 5 mL/kg of a 0.6 mg/mL solution in DMSO/PEG-400/Water (v/v/v, 10:30:60) to six mice. For p.o. administration, a single dose of compound 2 (10 mg/kg) was administered as 10 mL/kg of a 1 mg/mL solution in DMSO/PEG-400/Water (v/v/v, 10:30:60) to six mice. For i.p. administration, a single dose of compound 2 (10 mg/kg) was administered as 10 mL/kg of a 1 mg/mL solution in DMSO/PEG-400/Water (v/v/v, 10:30:60) to six mice. The mice had free access to water and food. At 0.083, 0.25, 0.5, 1, 2, 4, 8, 12, and 24 h post dose administration, 0.03 mL of blood was collected from the dorsal metatarsal vein of three mice at each time point. Each blood sample was transferred into a plastic microcentrifuge tube containing EDTA-K2 anticoagulant and mixed well with the anticoagulant then placed on ice prior to centrifugation at 4000× g for 5 min at 4 °C to obtain plasma. The samples were stored in a freezer at −75 ± 15 °C prior to analysis. At 12 h post dose administration and 24 h post dose administration, three mice were anesthetized using increasing concentrations of CO2, and lung samples were collected. Lung samples were quickly frozen in an ice box and stored at −75 ± 15 °C. Prior to analysis, all lung samples were weighed and homogenized with phosphate-buffered saline (PBS) in a lung weight (g)/buffer volume (mL) ratio of 1:3. The final concentration of the compound was calculated by multiplying the detected concentration by a dilution factor of four.
Concentrations of the test compound in the plasma samples were determined using a Prominence LC-MS/MS system with a DGU-20A5R(C) degasser, LC-30AD pump, CBM-20A system controller, SIL-20AC HT autosampler; Rack changer II, HALO 90A ES-CN (2.7 μm, 2.1 × 50 mm) column, and AB Sciex Triple Quan 5500 LC/MS/MS instrument. The mobile phase was 5–95% MeCN in H2O, with 0.1% formic acid. The desired serial concentrations of working solutions were achieved by diluting the stock solution of the analyte with 50% acetonitrile in water. A series of 10 µL working solutions […] were added to 10 μL of blank plasma or lung homogenate to achieve calibration standards of 0.5, 1, 2, 5, 10, 50, 100, 500, 1000 ng/mL in a total volume of 20 μL. A total of 5 quality control samples at 1 ng/mL, 2 ng/mL, 5 ng/mL, 100 ng/mL, and 800 ng/mL were prepared independently of those used for the calibration curves in the same manner. A 20 μL standard, 20 μL QC sample, and 20 μL of an unknown sample (10 µL plasma or lung homogenate with 10 µL blank solution) were added to 200 μL of acetonitrile containing internal standard mixture for precipitating protein. Then, the samples were vortexed for 30 s. After centrifugation at 4 °C and 4000 rpm for 15 min, the supernatant was diluted with ultrapure water at a ratio of 1:2 (v/v, 1:2), then 20 µL of diluted supernatant was injected into the LC/MS/MS system for quantitative analysis. PK parameters were calculated from the mean plasma concentration versus time using a noncompartmental model in WinNonlin Phoenix version 8.3.

[1] = male, ip, CD-1 mouse plasma, 10 mg/kg i.p.
[2] = male, iv, CD-1 mouse plasma, 3 mg/kg i.v.
[3] = male, po, CD-1 mouse plasma, 10 mg/kg p.o.

In the case of `CCC(=O)Nc1cc(Nc2cc(NC3CC3)n3ncc(C#N)c3n2)c(F)cc1N1CCC[C@H](NC)C1` [Compound 2, (S)-N-(5-((3-cyano-7-(cyclopropylamino)pyrazolo[1,5-a]pyrimidin-5-yl)amino)-4-fluoro-2-(3-(methylamino)piperidin-1-yl)phenyl)propionamide], the AUC(0-t) [1] is reported as 10.1 µM·h, the Cmax [1] is reported as 2650 nM and the Tmax [1] is reported as 0.5 h. It also gave a half-life [1] of 2.5 h, an AUC(0-t) [2] of 1.87 µM·h and a half-life [2] of 1.9 h. The Vd (male, iv, CD-1 mouse plasma, 3 mg/kg i.v., read-out: Vdss) was 3.5 L/kg, the concentration at 24 h (male, plasma, iv, 3 mg/kg i.v.) was < 1.02 nM and the concentration at 24 h (male, plasma, po, 10 mg/kg p.o.) was < 1.02 nM. The bioavailability (male, plasma, po, CD-1 mouse, 10 mg/kg p.o.) was 52%, the AUC(0-t) [3] was 3.13 µM·h and the Cmax [3] was 563 nM. The Tmax [3] was 2.7 h, the half-life [3] was 2.1 h and the lung concentrations (mice, 12 and 24 h post dose administration) was “accumulated in the lungs”.
